How the values were obtained:
Assay in all cases: relative viability (nuclei count vs DMSO), 5 days (fraction); higher = more cells survive
Tosedostat + Tozasertib = compound: CC(C)C[C@@H](C(=O)N[C@H](C(=O)OC1CCCC1)c1ccccc1)[C@H](O)C(=O)NO [Tosedostat] + Cc1cc(Nc2cc(N3CCN(C)CC3)nc(Sc3ccc(NC(=O)C4CC4)cc3)n2)n[nH]1 [Tozasertib] (partner 0.1 µM)
Procedure, shortened: (§1)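 Cells from lung cancer lines were seeded into 1536-well plates and, one day later, dosed by pin tool. Treatments were either a single drug or a fixed dose of an anchor drug with five library-drug doses (not always all listed) in √10 steps. After 5 days, nuclei were stained in a one-step fixation (final 0.05% Triton X-100, 1% formaldehyde, 1 ug/ml Hoechst) and counted on 4× images, and relative viability is the treated-to-vehicle nuclei ratio, as the median of duplicate plates.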

[1] = compound: CC1=NN=C(O1)C2=NN=C(C=C2)N3CCC(CC3)OC4=C(C=CC(=C4)F)Cl + CC(=O)c1c(C)c2cnc(Nc3ccc(N4CCNCC4)cn3)nc2n(C2CCCC2)c1=O [Palbociclib] (partner 0.5 µM)
Procedure, shortened: as §1

[2] = compound: CC1=NN=C(O1)C2=NN=C(C=C2)N3CCC(CC3)OC4=C(C=CC(=C4)F)Cl + CC1(C)CCC(c2ccc(Cl)cc2)=C(CN2CCN(c3ccc(C(=O)NS(=O)(=O)c4ccc(N[C@H](CCN5CCOCC5)CSc5ccccc5)c(S(=O)(=O)C(F)(F)F)c4)cc3)CC2)C1 [Navitoclax] (partner 0.5 µM)
Procedure, shortened: as §1

[3] = compound: CC1=NN=C(O1)C2=NN=C(C=C2)N3CCC(CC3)OC4=C(C=CC(=C4)F)Cl + C[C@]1(O)C[C@@H](c2nc(-c3ccc4ccc(-c5ccccc5)nc4c3)c3c(N)nccn32)C1 [Linsitinib] (partner 1 µM)
Procedure, shortened: as §1

Cell Line	relative viability (Tosedostat + Tozasertib; first compound 0.02 µM)	relative viability (Tosedostat + Tozasertib; first compound 0.06325 µM)	relative viability (Tosedostat + Tozasertib; first compound 0.2 µM)	relative viability (Tosedostat + Tozasertib; first compound 0.6325 µM)	relative viability (Tosedostat + Tozasertib; first compound 2 µM)	relative viability ([1]; first compound 0.253 µM)	relative viability ([1]; first compound 0.8 µM)	relative viability ([1]; first compound 2.53 µM)	relative viability ([1]; first compound 8 µM)	relative viability ([2]; first compound 0.253 µM)	relative viability ([2]; first compound 0.8 µM)	relative viability ([2]; first compound 2.53 µM)	relative viability ([2]; first compound 8 µM)	relative viability ([3]; first compound 0.253 µM)	relative viability ([3]; first compound 0.8 µM)	relative viability ([3]; first compound 2.53 µM)	relative viability ([3]; first compound 8 µM)
HCC-366	0.113	0.113	0.0994	0.0993	0.0727	0.063	0.124	0.132	0.112	0.445	0.387	0.423	0.364	0.225	0.291	0.386	0.247
BEN	0.535	0.523	0.429	0.326	0.252	0.452	0.448	0.487	0.52	0.0638	0.0498	0.058	0.141	0.784	0.879	0.919	0.75
NCI-H322M	0.461	0.468	0.434	0.419	0.341	0.471	0.509	0.469	0.492	1.17	1.11	1.11	1	0.853	0.836	0.896	0.786
NCI-H1395	0.757	0.748	0.768	0.678	0.675	0.562	0.592	0.599	0.626	1.17	0.859	1	1.13	0.931	0.943	1.09	1.06
201T	0.938	1.02	1.06	1.11	0.968	0.219	0.251	0.221	0.21	0.542	0.627	0.53	0.529	0.569	0.596	0.634	0.565
RERF-LC-KJ	0.553	0.462	0.403	0.304	0.293	0.617	0.667	0.633	0.688	0.781		0.671	0.765	0.523	0.568	0.6	0.632
HCC-15	0.571	0.415	0.43	0.274	0.346	0.427	0.392	0.414	0.418	0.477	0.445	0.455	0.491	0.608	0.58	0.553	0.578
NCI-H1666	0.639	0.711	0.541	0.726	0.623	0.632	0.684	0.651	0.627	0.706	0.667	0.723	0.698	0.589	0.725	0.791	0.656
EPLC-272H	0.7	0.172	0.16	0.124	0.107	0.281	0.314	0.277	0.34	0.935		1.11	1.01	1.09		1.18	1.05

From the supplement of paper PMC10307832
